Results published in publication PMC11607601, “Absence of the dolichol synthesis gene DHRSX leads to N-glycosylation defects in Lec5 and Lec9 Chinese hamster ovary cells” (The Journal of Biological Chemistry, 2024).
Values belong to the compound of their own block, whether it stands above or below them.

Columns and labels:
Type in all cases: biochemical
[1] = biological target: T1, chDHRSX (Chinese hamster DHRSX) (Cricetulus griseus, UniProt A0A9J7GKV7); experiment: LC-MS of dolichol-18 formation, Michaelis-Menten fit; settings: 4 μM dolichal mixture, pH 8.0, 37 °C, PC/PE lipids
T1 construct: gene LOC113838539; N-terminal 6xHis tag, pET15b, E. coli BL21(DE3), HisTrap native purification
T1 sequence (A0A9J7GKV7 1-328): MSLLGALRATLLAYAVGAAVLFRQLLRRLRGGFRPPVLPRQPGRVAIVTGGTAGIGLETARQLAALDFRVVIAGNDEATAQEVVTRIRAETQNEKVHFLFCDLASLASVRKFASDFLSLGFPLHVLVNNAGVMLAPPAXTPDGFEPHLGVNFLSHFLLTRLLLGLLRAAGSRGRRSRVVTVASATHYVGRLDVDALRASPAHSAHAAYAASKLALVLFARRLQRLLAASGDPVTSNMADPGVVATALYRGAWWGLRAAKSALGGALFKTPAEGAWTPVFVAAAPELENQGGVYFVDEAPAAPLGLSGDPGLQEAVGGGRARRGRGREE
From the text: LC-MS of dolichol-18 formation, Michaelis-Menten fit on chDHRSX (Chinese hamster DHRSX)

[2] = biological target: T2, hDHRSX (human DHRSX) (Homo sapiens, UniProt Q8N5I4); experiment: LC-MS of dolichol-18 formation in membranes; settings: dolichal mixture 5 μg/ml, 5 mM NADPH, pH 8.0, 37 °C, 2 h
T2 construct: pUB83 hDHRSX-N-His lentiviral expression in DHRSX-null Lec5 and Lec9 CHO cells; membrane preparation
T2 sequence (Q8N5I4 2-330): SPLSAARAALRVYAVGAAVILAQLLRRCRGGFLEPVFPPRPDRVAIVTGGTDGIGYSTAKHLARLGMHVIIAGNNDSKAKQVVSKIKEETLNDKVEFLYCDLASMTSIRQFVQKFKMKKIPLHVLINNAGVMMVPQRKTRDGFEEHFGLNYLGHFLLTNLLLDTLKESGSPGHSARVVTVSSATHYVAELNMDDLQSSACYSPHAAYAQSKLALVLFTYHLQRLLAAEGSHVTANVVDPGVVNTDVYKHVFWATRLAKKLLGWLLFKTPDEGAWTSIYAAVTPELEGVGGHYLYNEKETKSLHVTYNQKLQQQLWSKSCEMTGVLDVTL

[3] = biological target: T1, chDHRSX (Chinese hamster DHRSX); experiment: LC-MS of polyprenal-18 formation, Michaelis-Menten fit; settings: 4 μM polyprenol mixture, pH 8.0, 37 °C, PC/PE lipids
From the text: LC-MS of polyprenal-18 formation, Michaelis-Menten fit on chDHRSX (Chinese hamster DHRSX)

[4] = biological target: T2, hDHRSX (human DHRSX); experiment: LC-MS of polyprenal-18 formation in membranes; settings: polyprenol mixture 5 μg/ml, 5 mM NAD+, pH 8.0, 37 °C, 2 h

- Km ([1]; read-out: NADH): 34 ± 7 µM
SMILES: NC(=O)C1=CN([C@@H]2O[C@H](COP(=O)(O)OP(=O)(O)OC[C@H]3O[C@@H](n4cnc5c(N)ncnc54)[C@H](O)[C@@H]3O)[C@@H](O)[C@H]2O)C=CC1 [NADH]

- Km ([1]; read-out: NADPH): 26 ± 8 µM
SMILES: NC(=O)C1=CN([C@@H]2O[C@H](COP(=O)(O)OP(=O)(O)OC[C@H]3O[C@@H](n4cnc5c(N)ncnc54)[C@H](OP(=O)(O)O)[C@@H]3O)[C@@H](O)[C@H]2O)C=CC1 [NADPH]
- LC-MS of dolichol-18 formation in membranes [2]: expression of hDHRSX strongly increased dolichol formation

- Km ([3]; read-out: NADP^+): 96 ± 43 µM
SMILES: NC(=O)c1ccc[n+]([C@@H]2O[C@H](COP(=O)(O)OP(=O)(O)OC[C@H]3O[C@@H](n4cnc5c(N)ncnc54)[C@H](OP(=O)(O)O)[C@@H]3O)[C@@H](O)[C@H]2O)c1 [NADP^+]

- Km ([3]; read-out: NAD^+): 81 ± 36 µM
SMILES: NC(=O)c1ccc[n+]([C@@H]2O[C@H](COP(=O)(O)OP(=O)(O)OC[C@H]3O[C@@H](n4cnc5c(N)ncnc54)[C@H](O)[C@@H]3O)[C@@H](O)[C@H]2O)c1 [NAD^+]
- LC-MS of polyprenal-18 formation in membranes [4]: expression of hDHRSX in Lec5 and Lec9 cells increased the formation of polyprenal
